Measurements from patent publication US20220169628A1 (University of Florida Research Foundation, Incorporated, priority 2019, published 2022).
pIC50: −log10 of the molar value. Where two headings read alike, the source gives them in different places.

What was measured:
RS4;11 cells = test: Cell viability assay, MTS, 48 h, RS4;11; assay type: cell-based; conditions: 48 hours, read-out: IC50 (48 hours) RS4;11
Experimental: (§1) Acute lymphoblastic leukemia cells (MOLT-4 and RS4; 11) or small cell lung cancer (NCI-H146 or simply H146) were incubated with increasing concentrations of Bcl-xL degraders for 48 h. Cell viability was measured by tetrazolium-based MTS assay.

MOLT-4 cells = test: Cell viability assay, MTS, 48 h, MOLT-4; assay type: cell-based; conditions: 48 hours, read-out: IC50 (48 hours) MOLT-4
Experimental: as §1

Row | pIC50 (RS4;11 cells; Homo sapiens, RS4-11, 48 h) | pIC50 (MOLT-4 cells; Homo sapiens, MOLT-4, 48 h) | Molecule | pIC50 (RS4;11 cells) | pIC50 (MOLT-4 cells)
1 | > 7.30 | > 7.30 | Cc1ncsc1-c1ccc([C@H](C)NC(=O)[C@@H]2C[C@@H](O)CN2C(=O)[C@@H](NC(=O)CC2CCC(CC(=O)N3CCN(CC4(C)CCC(c5ccc(Cl)cc5)=C(CN5CCN(c6ccc(C(=O)NS(=O)(=O)c7ccc(N[C@H](CCN8CCOCC8)CSc8ccccc8)c(S(=O)(=O)C(F)(F)F)c7)cc6)CC5)C4)CC3)CC2)C(C)(C)C)cc1 (some centres unmarked) [degrader #40] | – | –
2 | 6.30 to 6.82 | 6.82 to 7.30 | Cc1ncsc1-c1ccc([C@H](C)NC(=O)[C@@H]2C[C@@H](O)CN2C(=O)[C@@H](NC(=O)CCCCCCC(=O)N2CCN(C[C@@]3(C)CCC(c4ccc(Cl)cc4)=C(CN4CCN(c5ccc(C(=O)NS(=O)(=O)c6ccc(N[C@H](CCN7CCOCC7)CSc7ccccc7)c(S(=O)(=O)C(F)(F)F)c6)cc5)CC4)C3)CC2)C(C)(C)C)cc1 [degrader #43, (2S,4R)-1-((S)-2-(8-(4-(((S)-4′-chloro-4-methyl-6-((4-(4-(((4-(((R)-4-morpholino-1-(phenylthio)butan-2-yl)amino)-3-((trifluoromethyl)sulfonyl)phenyl)sulfonyl)carbamoyl)phenyl)piperazin-1-yl)methyl)-2,3,4,5-tetrahydro-[1,1′-biphenyl]-4-yl)methyl)piperazin-1-yl)-8-oxooctanamido)-3,3-dimethylbutanoyl)-4-hydroxy-N—((S)-1-(4-(4-methylthiazol-5-yl)phenyl)ethyl)pyrrolidine-2-carboxamide] | – | –
3 | > 7.30 | > 7.30 | Cc1ncsc1-c1ccc([C@H](C)NC(=O)[C@@H]2C[C@@H](O)CN2C(=O)[C@@H](NC(=O)CCCCCCC(=O)N2CCN(C[C@]3(C)CCC(c4ccc(Cl)cc4)=C(CN4CCN(c5ccc(C(=O)NS(=O)(=O)c6ccc(N[C@H](CCN7CCOCC7)CSc7ccccc7)c(S(=O)(=O)C(F)(F)F)c6)cc5)CC4)C3)CC2)C(C)(C)C)cc1 [degrader #44, (2S,4R)-1-((S)-2-(8-(4-(((R)-4′-chloro-4-methyl-6-((4-(4-(((4-(((R)-4-morpholino-1-(phenylthio)butan-2-yl)amino)-3-((trifluoromethyl)sulfonyl)phenyl)sulfonyl)carbamoyl)phenyl)piperazin-1-yl)methyl)-2,3,4,5-tetrahydro-[1,1′-biphenyl]-4-yl)methyl)piperazin-1-yl)-8-oxooctanamido)-3,3-dimethylbutanoyl)-4-hydroxy-N—((S)-1-(4-(4-methylthiazol-5-yl)phenyl)ethyl)pyrrolidine-2-carboxamide] | – | –
4 | > 7.30 | 6.82 to 7.30 | Cc1ncsc1-c1ccc([C@H](C)NC(=O)[C@@H]2C[C@@H](O)CN2C(=O)[C@@H](NC(=O)CCCCCCC(=O)N2C[C@@H]3C[C@H]2CN3CC2(C)CCC(c3ccc(Cl)cc3)=C(CN3CCN(c4ccc(C(=O)NS(=O)(=O)c5ccc(N[C@H](CCN6CCOCC6)CSc6ccccc6)c(S(=O)(=O)C(F)(F)F)c5)cc4)CC3)C2)C(C)(C)C)cc1 (some centres unmarked) [degrader #45] | – | –
5 | 6.82 to 7.30 | 6.30 to 6.82 | Cc1ncsc1-c1ccc([C@H](C)NC(=O)[C@@H]2C[C@@H](O)CN2C(=O)[C@@H](NC(=O)CCCCCC(=O)N[C@H]2CCCN(CC3(C)CCC(c4ccc(Cl)cc4)=C(CN4CCN(c5ccc(C(=O)NS(=O)(=O)c6ccc(N[C@H](CCN7CCOCC7)CSc7ccccc7)c(S(=O)(=O)C(F)(F)F)c6)cc5)CC4)C3)C2)C(C)(C)C)cc1 (stereo partly drawn) [degrader #46, N1-((3S)-1-((4′-chloro-4-methyl-6-((4-(4-(((4-(((R)-4-morpholino-1-(phenylthio)butan-2-yl)amino)-3-((trifluoromethyl)sulfonyl)phenyl)sulfonyl)carbamoyl)phenyl)piperazin-1-yl)methyl)-2,3,4,5-tetrahydro-[1,1′-biphenyl]-4-yl)methyl)piperidin-3-yl)-N7-((S)-1-((2S,4R)-4-hydroxy-2-(((S)-1-(4-(4-methylthiazol-5-yl)phenyl)ethyl)carbamoyl)pyrrolidin-1-yl)-3,3-dimethyl-1-oxobutan-2-yl)heptanediamide] | – | –
6 | 6.82 to 7.30 | 6.82 to 7.30 | Cc1ncsc1-c1ccc([C@H](C)NC(=O)[C@@H]2C[C@@H](O)CN2C(=O)[C@@H](NC(=O)CCCCCCC(=O)N[C@H]2CCCN(CC3(C)CCC(c4ccc(Cl)cc4)=C(CN4CCN(c5ccc(C(=O)NS(=O)(=O)c6ccc(N[C@H](CCN7CCOCC7)CSc7ccccc7)c(S(=O)(=O)C(F)(F)F)c6)cc5)CC4)C3)C2)C(C)(C)C)cc1 (stereo partly drawn) [degrader #47, N1-((3S)-1-((4′-chloro-4-methyl-6-((4-(4-(((4-(((R)-4-morpholino-1-(phenylthio)butan-2-yl)amino)-3-((trifluoromethyl)sulfonyl)phenyl)sulfonyl)carbamoyl)phenyl)piperazin-1-yl)methyl)-2,3,4,5-tetrahydro-[1,1′-biphenyl]-4-yl)methyl)piperidin-3-yl)-N8-((S)-1-((2S,4R)-4-hydroxy-2-(((S)-1-(4-(4-methylthiazol-5-yl)phenyl)ethyl)carbamoyl)pyrrolidin-1-yl)-3,3-dimethyl-1-oxobutan-2-yl)octanediamide] | – | –
7 | > 7.30 | 6.82 to 7.30 | Cc1ncsc1-c1ccc([C@H](C)NC(=O)[C@@H]2C[C@@H](O)CN2C(=O)[C@@H](NC(=O)CCCCCCCC(=O)N[C@H]2CCCN(CC3(C)CCC(c4ccc(Cl)cc4)=C(CN4CCN(c5ccc(C(=O)NS(=O)(=O)c6ccc(N[C@H](CCN7CCOCC7)CSc7ccccc7)c(S(=O)(=O)C(F)(F)F)c6)cc5)CC4)C3)C2)C(C)(C)C)cc1 (stereo partly drawn) [degrader #48, N1-((3S)-1-((4′-chloro-4-methyl-6-((4-(4-(((4-(((R)-4-morpholino-1-(phenylthio)butan-2-yl)amino)-3-((trifluoromethyl)sulfonyl)phenyl)sulfonyl)carbamoyl)phenyl)piperazin-1-yl)methyl)-2,3,4,5-tetrahydro-[1,1′-biphenyl]-4-yl)methyl)piperidin-3-yl)-N9-((S)-1-((2S,4R)-4-hydroxy-2-(((S)-1-(4-(4-methylthiazol-5-yl)phenyl)ethyl)carbamoyl)pyrrolidin-1-yl)-3,3-dimethyl-1-oxobutan-2-yl)nonanediamide] | – | –

The next lines start with the molecule.

Row | Molecule | pIC50 (RS4;11 cells; Homo sapiens, RS4-11, 48 h) | pIC50 (MOLT-4 cells; Homo sapiens, MOLT-4, 48 h) | pIC50 (RS4;11 cells) | pIC50 (MOLT-4 cells)
8 | (2S,4R)-1-((S)-2-(4-(4-(4-chlorophenyl)-5-((4-(4-(((4-(((R)-4-morpholino-1-(phenylthio)butan-2-yl)amino)-3-((trifluoromethyl)sulfonyl)phenyl)sulfonyl)carbamoyl)phenyl)piperazin-1-yl)methyl)-3,6-dihydropyridin-1(2H)-yl)-4-oxobutanamido)-3,3-dimethylbutanoyl)-4-hydroxy-N—((S)-1-(4-(4-methylthiazol-5-yl)phenyl)ethyl)pyrrolidine-2-carboxamide [Example 1] | – | – | 6.30 to 6.82 | 6.30 to 6.82
9 | (2S,4R)-1-((S)-2-(7-(4-(4-chlorophenyl)-5-((4-(4-(((4-(((R)-4-morpholino-1-(phenylthio)butan-2-yl)amino)-3-((trifluoromethyl)sulfonyl)phenyl)sulfonyl)carbamoyl)phenyl)piperazin-1-yl)methyl)-3,6-dihydropyridin-1(2H)-yl)-7-oxoheptanamido)-3,3-dimethylbutanoyl)-4-hydroxy-N—((S)-1-(4-(4-methylthiazol-5-yl)phenyl)ethyl)pyrrolidine-2-carboxamide [Example 2] | – | – | 6.30 to 6.82 | 6.30 to 6.82
10 | (2S,4R)-1-((S)-2-(8-(4-(4-chlorophenyl)-5-((4-(4-(((4-(((R)-4-morpholino-1-(phenylthio)butan-2-yl)amino)-3-((trifluoromethyl)sulfonyl)phenyl)sulfonyl)carbamoyl)phenyl)piperazin-1-yl)methyl)-3,6-dihydropyridin-1(2H)-yl)-8-oxooctanamido)-3,3-dimethylbutanoyl)-4-hydroxy-N—((S)-1-(4-(4-methylthiazol-5-yl)phenyl)ethyl)pyrrolidine-2-carboxamide [Example 3] | – | – | 6.82 to 7.30 | 6.30 to 6.82
11 | (2S,4R)-1-((S)-2-(9-(4-(4-chlorophenyl)-5-((4-(4-(((4-(((R)-4-morpholino-1-(phenylthio)butan-2-yl)amino)-3-((trifluoromethyl)sulfonyl)phenyl)sulfonyl)carbamoyl)phenyl)piperazin-1-yl)methyl)-3,6-dihydropyridin-1(2H)-yl)-9-oxononanamido)-3,3-dimethylbutanoyl)-4-hydroxy-N—((S)-1-(4-(4-methylthiazol-5-yl)phenyl)ethyl)pyrrolidine-2-carboxamide [Example 4] | – | – | > 7.30 | 6.82 to 7.30
12 | (2S,4R)-1-((S)-2-(10-(4-(4-chlorophenyl)-5-((4-(4-(((4-(((R)-4-morpholino-1-(phenylthio)butan-2-yl)amino)-3-((trifluoromethyl)sulfonyl)phenyl)sulfonyl)carbamoyl)phenyl)piperazin-1-yl)methyl)-3,6-dihydropyridin-1(2H)-yl)-10-oxodecanamido)-3,3-dimethylbutanoyl)-4-hydroxy-N—((S)-1-(4-(4-methylthiazol-5-yl)phenyl)ethyl)pyrrolidine-2-carboxamide [Example 5] | – | – | > 7.30 | > 7.30
13 | (2S,4R)-1-((S)-2-(11-(4-(4-chlorophenyl)-5-((4-(4-(((4-(((R)-4-morpholino-1-(phenylthio)butan-2-yl)amino)-3-((trifluoromethyl)sulfonyl)phenyl)sulfonyl)carbamoyl)phenyl)piperazin-1-yl)methyl)-3,6-dihydropyridin-1(2H)-yl)-11-oxoundecanamido)-3,3-dimethylbutanoyl)-4-hydroxy-N—((S)-1-(4-(4-methylthiazol-5-yl)phenyl)ethyl)pyrrolidine-2-carboxamide [Example 6] | – | – | > 7.30 | 6.82 to 7.30
